For one test, the target named is T1, IL-17A/A (Homo sapiens, UniProt Q16552).
T1 construct: purchased Genscript Z03228
T1 sequence (Q16552 24-155): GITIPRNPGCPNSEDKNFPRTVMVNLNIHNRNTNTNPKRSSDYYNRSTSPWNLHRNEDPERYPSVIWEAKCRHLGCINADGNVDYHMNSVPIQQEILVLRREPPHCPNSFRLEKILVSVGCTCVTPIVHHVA
The test is described as follows: IL-17A/A HEK-Blue cell assay (SEAP reporter). In kind it is cell-based. As to conditions: HEK-Blue IL-17A reporter cells, IL17A/A 5 ng/mL, 20 hours, SEAP read at A630; read-out: HEK-Blue IL17AA (IC50 for IL-17A/A inhibition).

The target of another test is T2, IL-17A/F (Homo sapiens, UniProt Q16552+Q96PD4).
T2 construct: purchased R&D Systems
T2 sequence (Q16552 24-155): T1 sequence (Q16552 24-155)
T2 sequence (Q96PD4 31-163): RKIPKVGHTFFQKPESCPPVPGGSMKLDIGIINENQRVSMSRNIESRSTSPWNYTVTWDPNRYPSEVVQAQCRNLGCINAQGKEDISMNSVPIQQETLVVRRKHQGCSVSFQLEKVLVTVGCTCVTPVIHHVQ
The test is described as follows: IL-17A/F HEK-Blue cell assay (SEAP reporter). Type of test: cell-based. As to conditions: HEK-Blue IL-17A reporter cells, IL17A/F 5 ng/mL, 20 hours, SEAP read at A630; read-out: HEK-Blue IL17AF (IC50 for IL-17A/F inhibition).

Molecules are shown by their SMILES.

In the case of `CC(C)c1nc2nc([C@@H](NC(=O)c3ccnn3C)C3CCC(F)(F)CC3)cn2nc1C[C@H]1C[C@@H](C(F)(F)F)CNC1=O` [Compound 261, N—((S)-(4,4-difluorocyclohexyl)(3-isopropyl-2-(((3R,5R)-2-oxo-5-(trifluoromethyl)piperidin-3-yl)methyl)imidazo[1,2-b][1,2,4]triazin-6-yl)methyl)-1-methyl-1H-pyrazole-5-carboxamide], the IC50 on IL-17A/A is less than 100 nM; at IL-17A/F it was 100 to 1000 nM.
For `Cn1nccc1C(=O)N[C@H](c1cn2nc(C[C@H]3C[C@@H](C(F)(F)F)CNC3=O)c(C3CCC(F)(F)CC3)nc2n1)C1CCC(F)(F)CC1` [Compound 262, N—((S)-(4,4-difluorocyclohexyl)(3-(4,4-difluorocyclohexyl)-2-(((3R,5R)-2-oxo-5-(trifluoromethyl)piperidin-3-yl)methyl)imidazo[1,2-b][1,2,4]triazin-6-yl)methyl)-1-methyl-1H-pyrazole-5-carboxamide], in that order: less than 100 nM and 100 to 1000 nM.
For `CCn1nccc1C(=O)N[C@H](c1cn2nc(C[C@H]3C[C@@H](C(F)(F)F)CNC3=O)c(C3(OC)CCOCC3)nc2n1)C1CCC(F)(F)CC1` [Compound 269, N—((S)-(4,4-difluorocyclohexyl)(3-(4-methoxytetrahydro-2H-pyran-4-yl)-2-(((3R,5R)-2-oxo-5-(trifluoromethyl)piperidin-3-yl)methyl)imidazo[1,2-b][1,2,4]triazin-6-yl)methyl)-1-ethyl-1H-pyrazole-5-carboxamide], in that order: less than 100 nM and more than 1000 nM.
In the case of `CCn1nccc1C(=O)N[C@H](c1cn2nc(C[C@H]3C[C@@H](C(F)(F)F)CNC3=O)c(C3(OC)CCC(F)(F)CC3)nc2n1)C1CCC(F)(F)CC1` [Compound 270, N—((S)-(3-(4,4-difluoro-1-methoxycyclohexyl)-2-(((3R,5R)-2-oxo-5-(trifluoromethyl)piperidin-3-yl)methyl)imidazo[1,2-b][1,2,4]triazin-6-yl)(4,4-difluorocyclohexyl)methyl)-1-ethyl-1H-pyrazole-5-carboxamide], the values for the IC50 on IL-17A/A and on IL-17A/F were less than 100 nM and more than 1000 nM, respectively.
For `CCn1nccc1C(=O)N[C@H](c1cn2nc(C[C@H]3C[C@@H](C(F)(F)F)CNC3=O)c(C(C)(F)F)nc2n1)C1CCC(F)(F)CC1` [Compound 273, N—((S)-(4,4-difluorocyclohexyl)(3-(1,1-difluoroethyl)-2-(((3R,5R)-2-oxo-5-(trifluoromethyl)piperidin-3-yl)methyl)imidazo[1,2-b][1,2,4]triazin-6-yl)methyl)-1-ethyl-1H-pyrazole-5-carboxamide], in that order: less than 100 nM and more than 1000 nM.
For `CCn1nccc1C(=O)N[C@H](c1cn2nc(C[C@H]3C[C@@H](C(F)(F)F)CNC3=O)c(CCOC)nc2n1)C1CCC(F)(F)CC1` [Compound 276, N—((S)-(4,4-difluorocyclohexyl)(3-(2-methoxyethyl)-2-(((3R,5R)-2-oxo-5-(trifluoromethyl)piperidin-3-yl)methyl)imidazo[1,2-b][1,2,4]triazin-6-yl)methyl)-1-ethyl-1H-pyrazole-5-carboxamide], the IC50 at IL-17A/A was less than 100 nM; on IL-17A/F, 100 to 1000 nM.
For `Cn1nccc1C(=O)N[C@H](c1cn2nc(C[C@H]3C[C@@H](C(F)(F)F)CNC3=O)c(C3CCOCC3)nc2n1)[C@@H]1CCCC(F)(F)C1` [Compound 277, N—((S)—((R)-3,3-difluorocyclohexyl)(2-(((3R,5R)-2-oxo-5-(trifluoromethyl)piperidin-3-yl)methyl)-3-(tetrahydro-2H-pyran-4-yl)imidazo[1,2-b][1,2,4]triazin-6-yl)methyl)-1-methyl-1H-pyrazole-5-carboxamide], in that order: less than 100 nM and 100 to 1000 nM.
Consider `Cn1nccc1C(=O)N[C@H](c1cn2nc(C[C@H]3C[C@@H](C(F)(F)F)CNC3=O)c(C3CCOCC3)nc2n1)[C@H]1CCCC(F)(F)C1` [Compound 278, N—((S)—((S)-3,3-difluorocyclohexyl)(2-(((3R,5R)-2-oxo-5-(trifluoromethyl)piperidin-3-yl)methyl)-3-(tetrahydro-2H-pyran-4-yl)imidazo[1,2-b][1,2,4]triazin-6-yl)methyl)-1-methyl-1H-pyrazole-5-carboxamide], for which the IC50 on IL-17A/A was less than 100 nM; on IL-17A/F, 100 to 1000 nM.
In the case of `CCn1nccc1C(=O)N[C@H](c1cn2nc(C[C@H]3CC(F)(F)CNC3=O)c(C3CCOCC3)nc2n1)C1CCC(F)(F)CC1` [Compound 279], the results for the IC50 at IL-17A/A and at IL-17A/F were less than 100 nM and more than 1000 nM, respectively.
As to `Cn1nccc1C(=O)N[C@H](c1cn2nc(C[C@H]3C[C@@H](C(F)(F)F)CNC3=O)c(C3(C)CCOCC3)nc2n1)C1CCC(F)(F)CC1` [Compound 280, N—((S)-(4,4-difluorocyclohexyl)(3-(4-methyltetrahydro-2H-pyran-4-yl)-2-(((3R,5R)-2-oxo-5-(trifluoromethyl)piperidin-3-yl)methyl)imidazo[1,2-b][1,2,4]triazin-6-yl)methyl)-1-methyl-1H-pyrazole-5-carboxamide], the IC50 is less than 100 nM at IL-17A/A and more than 1000 nM at IL-17A/F.
For the molecule `CCn1nccc1C(=O)N[C@H](c1cn2nc(C[C@H]3C[C@@H](C(F)(F)F)CC3=O)c(C3CCOCC3)nc2n1)C(C1CC1)C1CC1` [Compound 281], the IC50 is less than 100 nM at IL-17A/A and 100 to 1000 nM at IL-17A/F.
For `CCn1nccc1C(=O)N[C@H](c1cn2nc(C[C@H]3C[C@@H](C(F)(F)F)CNC3=O)c(N3CCO[C@H](C)C3)nc2n1)C1CCC(F)(F)CC1` [Compound 282, N—((S)-(4,4-difluorocyclohexyl)(3-((R)-2-methylmorpholino)-2-(((3R,5R)-2-oxo-5-(trifluoromethyl)piperidin-3-yl)methyl)imidazo[1,2-b][1,2,4]triazin-6-yl)methyl)-1-ethyl-1H-pyrazole-5-carboxamide], in that order: less than 100 nM and less than 100 nM.
In the case of `CCn1nccc1C(=O)N[C@H](c1cn2nc(C[C@H]3C[C@@H](C(F)(F)F)CNC3=O)c(N3CCO[C@@H](C)C3)nc2n1)C1CCC(F)(F)CC1` [Compound 283, N—((S)-(4,4-difluorocyclohexyl)(3-((S)-2-methylmorpholino)-2-(((3R,5R)-2-oxo-5-(trifluoromethyl)piperidin-3-yl)methyl)imidazo[1,2-b][1,2,4]triazin-6-yl)methyl)-1-ethyl-1H-pyrazole-5-carboxamide], the IC50 at IL-17A/A is less than 100 nM; at IL-17A/F, 100 to 1000 nM.
For `CCn1nccc1C(=O)N[C@H](c1cn2nc(C[C@H]3C[C@@H](C(F)(F)F)CNC3=O)c([C@@H]3CCNC3)nc2n1)C1CCC(F)(F)CC1` [Compound 284, N-((1S)-(4,4-difluorocyclohexyl)(2-(((3R,5R)-2-oxo-5-(trifluoromethyl)piperidin-3-yl)methyl)-3-(pyrrolidin-3-yl)imidazo[1,2-b][1,2,4]triazin-6-yl)methyl)-1-ethyl-1H-pyrazole-5-carboxamide], in that order: 100 to 1000 nM and more than 1000 nM.
For `CCn1nccc1C(=O)N[C@H](c1cn2nc(C[C@H]3C[C@@H](C(F)(F)F)CNC3=O)c(CNC)nc2n1)C1CCC(F)(F)CC1` [Compound 286, N—((S)-(4,4-difluorocyclohexyl)(3-((methylamino)methyl)-2-(((3R,5R)-2-oxo-5-(trifluoromethyl)piperidin-3-yl)methyl)imidazo[1,2-b][1,2,4]triazin-6-yl)methyl)-1-ethyl-1H-pyrazole-5-carboxamide], in that order: 100 to 1000 nM and more than 1000 nM.
For `CCn1nccc1C(=O)N[C@H](c1cn2nc(C[C@H]3C[C@@H](C(F)(F)F)CNC3=O)c(CN(C)C)nc2n1)C1CCC(F)(F)CC1` [Compound 287, N—((S)-(4,4-difluorocyclohexyl)(3-((dimethylamino)methyl)-2-(((3R,5R)-2-oxo-5-(trifluoromethyl)piperidin-3-yl)methyl)imidazo[1,2-b][1,2,4]triazin-6-yl)methyl)-1-ethyl-1H-pyrazole-5-carboxamide], in that order: 100 to 1000 nM and more than 1000 nM.
`CCn1nccc1C(=O)N[C@H](c1cn2nc(C[C@H]3C[C@@H](C(F)(F)F)CNC3=O)c(CN3CCCCC3)nc2n1)C1CCC(F)(F)CC1` [Compound 288, N—((S)-(4,4-difluorocyclohexyl)(2-(((3R,5R)-2-oxo-5-(trifluoromethyl)piperidin-3-yl)methyl)-3-(piperidin-1-ylmethyl)imidazo[1,2-b][1,2,4]triazin-6-yl)methyl)-1-ethyl-1H-pyrazole-5-carboxamide]: the IC50 is less than 100 nM at IL-17A/A and more than 1000 nM on IL-17A/F.
For `CCn1nccc1C(=O)N[C@H](c1cn2nc(C[C@H]3C[C@@H](C(F)(F)F)CNC3=O)c(C3CCOCC3)nc2n1)C1CCCCCC1` [Compound 289, N—((S)-cycloheptyl(2-(((3R,5R)-2-oxo-5-(trifluoromethyl)piperidin-3-yl)methyl)-3-(tetrahydro-2H-pyran-4-yl)imidazo[1,2-b][1,2,4]triazin-6-yl)methyl)-1-ethyl-1H-pyrazole-5-carboxamide], in that order: less than 100 nM and less than 100 nM.
For `Cn1nccc1C(=O)N[C@H](c1cn2nc(C[C@H]3C[C@@H](C(F)(F)F)CNC3=O)c(C3CCOCC3)nc2n1)C1CCCCCC1` [Compound 290, N—((S)-cycloheptyl(2-(((3R,5R)-2-oxo-5-(trifluoromethyl)piperidin-3-yl)methyl)-3-(tetrahydro-2H-pyran-4-yl)imidazo[1,2-b][1,2,4]triazin-6-yl)methyl)-1-methyl-1H-pyrazole-5-carboxamide], in that order: less than 100 nM and less than 100 nM.
